Values of other authors, collected in PMC8861878 (The Journal of pharmacy and pharmacology, 2020).

Test system: opioid receptor
Conditions: cited from earlier work

CN1CC[C@]23c4c5ccc(O)c4O[C@H]2[C@@H](O[C@@H]2O[C@H](C(=O)O)[C@@H](O)[C@H](O)[C@H]2O)C=C[C@H]3[C@H]1C5 [M6G, morphine-6-glucuronide]
affinity with opioid receptor relative to morphine: 100 times
